What was measured:
retinal ganglion cells [1] = experiment: Protective effect on retinal ganglion cells in a glaucoma model (India ink injection and angle photocoagulation); format: in vivo, Wistar white rats; details: T-588 100 mg/kg orally
From the text: 1. Protective Effect on Retinal Ganglion Cells in a Glaucoma Model
Wistar white rats [male, body weight 290-310 g] were subjected to a general anesthesia by intraperitoneal injection of ketamine hydrochloride and xylazine hydrochloride. Subsequently, the rats were subjected to an instillation anesthesia with oxybuprocaine hydrochloride. After the measuring both the intraocular pressures with a pneumatonometer (Model Classic 30:Mentor, Norwell, Mass., U.S.A.), the anterior chamber of the right eye was punctured with a 30-gage needle to aspirate the aqueous humor, and then about 30 μL of 35% India ink was injected thereinto. […]
Immediately after the coagulation, ophthalmoscopy was performed in all the animals in order to confirm the occlusion of retina central artery. Five days after the angle photocoagulation, the intraocular pressure was measured to confirm an elevation of the intraocular pressure in the right eye. […] From the fluorescent microscopic photographs, the number of labeled cell was counted by means of an image analyzer. The labeling rate of retinal ganglion cell was calculated as a ratio of the number of labeled ganglion cells in the right eye to the number of labeled ganglion cells in the control eye (left eye).
On the eighth day from the angle photocoagulation, the number of alive retinal ganglion cells was counted and compared with that of a normal eye. […]

retinal ganglion cells [2] = experiment: Protective effect on retinal ganglion cells in a retinal ischemia-reperfusion rat model; format: in vivo, SD rats; details: fourteen days after retinal ischemia-reperfusion, n=8, control group 40%
Experimental: 2. Protective Effect on Retinal Ganglion Cells in a Retinal Ischemia-Reperfusion Rat Model
As a retinal ischemia-reperfusion model, the manner in Steven Roth et al. (Experimental Eye Research, Vol. 65, Pages 771-779, 1997) was used with partial modification.
As the test animals, SD rats (Japan SLC), 9 weeks old (body weight: about 300 g) were used. The operation was carried out under a halothane-anesthetized condition (introduction 5%, maintenance 2%). First, the animal was fixed on the table in a lateral decubitus, and the middle part of the skin between the external auditory canal and the external ocular angle was incised. After peeling off the temporal muscle from the cranium, the tissues surrounding the optic nerve were peeled off to expose the optic nerve. The retina central vessels were ligated together with the optic nerve with a 4-0 silk thread so as to avoid the damage of optic nerve. Thirty minutes after, the silk thread was released to reperfuse the blood flow. T-588 was orally administered 30 minutes before the ischemic treatment and just after the reperfusion. From the day next to the operation, T-588 was orally administered twice a day. […] The number of retinal ganglion cells was counted in the two region from the optic disk to 0.5 mm distant point and a ratio of the number of neurons in the ischemic eye to that in the normal eye was calculated on each individual. […]

[3] = test system: neuron cell death caused by amyloid β-protein; details: Society for Neuroscience Abstracts Vol. 24, 1998; cited from earlier work
nerve growth factor = details: WO96/12717; cited from earlier work

Q: For `CCN(CC)CCOC[C@H](O)c1ccc2sccc2c1.Cl` [T-588, (R)-1-(benzo[b]thiophen-5-yl)-2-[2-(N,N-diethylamino)ethoxy]ethanol hydrochloride], which “survival rate of retinal ganglion cells (tested eye compared with normal eye)” value (retinal ganglion cells [1]; eighth day from angle photocoagulation, n=9, control group 78%) is on record?
A: 91%

Q: And the “influence on the elevation of intraocular pressure” value (retinal ganglion cells [1]; glaucoma model rats)?
A: no influence

Q: And the “survival rate of retinal ganglion cells (tested eye compared with normal eye)” value (retinal ganglion cells [2]; T-588 10 mg/kg orally twice a day)?
A: 57%

Q: And the “survival rate of retinal ganglion cells (tested eye compared with normal eye)” value (retinal ganglion cells [2]; T-588 30 mg/kg orally twice a day)?
A: 70%

Q: What about the “effect against neuron cell death caused by amyloid β-protein” value [3] of the same compound?
A: protective effects

Q: And the “effect on nerve growth factor activity” value (nerve growth factor)?
A: nerve growth factor activity-improving effect

— patent US20040014777A1, “Remedies for retinal nerve diseases containing 1,2-ethanediol derivatives or salts thereof” (Toyama Chemical Co., LTD., priority 2000, published 2004)
